From patent publication US20190336496A1, “SELECTIVE BCL-2 INHIBITORS IN COMBINATION WITH AN ANTI-PD-1 OR AN ANTI-PD-L1 ANTIBODY FOR THE TREATMENT OF CANCERS” (AbbVie Inc., priority 2018, published 2019)

Tests used:
A549 = assay: Venetoclax cell killing (CellTiter-Glo); assay type: cell-based; settings: Homo sapiens, A549, 72 h; Lung; 10% FBS; 3 days
Procedure: (§1) Solid tumor cell lines were obtained from American Type Culture Collection (ATCC, Manassas, Va.) or the National Cancer Institute (NCI) and cultured in humidified incubators at 37° C. (5% CO2) in appropriate media (specified by supplier) supplemented with 10% fetal bovine serum (FBS) or 10% human serum (HS). 24 hours after plating into 96-well or 384-well tissue culture plates, venetoclax was added to cells at various concentrations (typically 0.010 to 10 μM in half-log increments) to perform concentration-response assessments of cell killing. After 1 to 5 days of culture in the presence of venetoclax, cell viability was assessed using CellTiter-Glo® reagent (Promega). IC50 values were determined by non-linear regression analysis of the concentration response data (Table 5 and Table 6).

COLO-205 = assay: Venetoclax cell killing (CellTiter-Glo); assay type: cell-based; settings: Homo sapiens, COLO 205, 120 h; Colorectal; 10% FBS; 5 days
Procedure: as §1

HT29 = assay: Venetoclax cell killing (CellTiter-Glo); assay type: cell-based; settings: Homo sapiens, HT-29, 120 h; Colorectal; 10% FBS; 5 days
Procedure: as §1

MDA-MB-231 = assay: Venetoclax cell killing (CellTiter-Glo); assay type: cell-based; settings: Homo sapiens, MDA-MB-231, 72 h; Breast Cancer; 10% FBS; 3 days
Procedure: as §1

NCI-H146 = assay: Venetoclax cell killing (CellTiter-Glo); assay type: cell-based; settings: Homo sapiens, NCI-H146, 48 h; Lung; 10% HS; 2 days
Procedure: as §1

NCI-H1836 = assay: Venetoclax cell killing (CellTiter-Glo); assay type: cell-based; settings: Homo sapiens, NCI-H1836, 48 h; Lung; 10% HS; 2 days
Procedure: as §1

NCI-H187 = assay: Venetoclax cell killing (CellTiter-Glo); assay type: cell-based; settings: Homo sapiens, NCI-H187, 48 h; Lung; 10% HS; 2 days
Procedure: as §1

NCI-H209 = assay: Venetoclax cell killing (CellTiter-Glo); assay type: cell-based; settings: Homo sapiens, NCI-H209, 24 h; Lung; 10% FBS; 1 day
Procedure: as §1

SJSA-1 = assay: Venetoclax cell killing (CellTiter-Glo); assay type: cell-based; settings: Homo sapiens, SJSA-1, 120 h; Osteosarcoma; 10% FBS; 5 days
Procedure: as §1

SW948 = assay: Venetoclax cell killing (CellTiter-Glo); assay type: cell-based; settings: Homo sapiens, SW948, 120 h; Colorectal; 10% FBS; 5 days
Procedure: as §1

4T1 = assay: Venetoclax cell killing (CellTiter-Glo); assay type: cell-based, murine; settings: Mus musculus, 4T1, 72 h; Breast Cancer; 10% FBS; 3 days
Procedure: as §1

B16F10 = assay: Venetoclax cell killing (CellTiter-Glo); assay type: cell-based, murine; settings: Mus musculus, B16-F10, 72 h; Melanoma; 10% FBS; 3 days
Procedure: as §1

B16F1 = assay: Venetoclax cell killing (CellTiter-Glo); assay type: cell-based, murine; settings: Mus musculus, B16-F1, 72 h; Melanoma; 10% FBS; 3 days
Procedure: as §1

CT26 = assay: Venetoclax cell killing (CellTiter-Glo); assay type: cell-based, murine; settings: Mus musculus, CT26, 72 h; Colorectal; 10% FBS; 3 days
Procedure: as §1

EMT6 = assay: Venetoclax cell killing (CellTiter-Glo); assay type: cell-based, murine; settings: Mus musculus, EMT6, 72 h; Breast Cancer; 10% FBS; 3 days
Procedure: as §1

LL2 = assay: Venetoclax cell killing (CellTiter-Glo); assay type: cell-based, murine; settings: Mus musculus, LL/2, 72 h; Lung Cancer; 10% FBS; 3 days
Procedure: as §1

MC38 = assay: Venetoclax cell killing (CellTiter-Glo); assay type: cell-based, murine; settings: Mus musculus, MC-38, 72 h; Colorectal; 10% FBS; 3 days
Procedure: as §1

Renca = assay: Venetoclax cell killing (CellTiter-Glo); assay type: cell-based, murine; settings: Mus musculus, 72 h, Renal Adenocarcinoma, 10% FBS, 3 days
Procedure: as §1

human PBMCs = assay: In vitro sensitivity of human PBMCs; assay type: cell-based
Procedure: Human PBMCs were thawed and cultured overnight in 30 U/mL of interleukin-2 (IL-2). Cells were harvested, washed once with complete media and counted. PBMCs were plated at a density of 5×10^5 cells per well in a 48-well plate with 30 U/mL IL-2. For stimulation of T-cells, cells were plated in anti-CD3-coated wells (2.5 μg/mL; ThermoFisher cat. #16-0037-85, clone OKT3) and soluble anti-CD28 was added (1 μg/mL; ThermoFisher cat. #16-0289-85, clone CD28.2). Cells were treated with increasing concentrations of venetoclax for 24 hours (dimethyl sulfoxide (DMSO) was used as control). Cells were harvested, stained and subjected to flow cytometry analysis with a BD LSRII instrument (BD Biosciences)
However, when PBMCs were stimulated with anti-CD3 and anti-CD28 for 72 hours before treating with venetoclax, the T-cells were not sensitive to venetoclax. (FIG. 7B). While the proportion of naïve T-cells (CD4^+CD62L^+CD45RO^− and […]) decreased with increasing venetoclax concentrations, the proportion of CD4^+ central memory (TCM; CD62L^+CD45RO^+) and CD8^+ terminally differentiated effector memory (TEMRA; CD8^+CD62L^−CD45RO^−) and effector memory cells (TEM; CD8^+CD62L^−CD45RO^+) increased relative to the number of surviving T-cells (FIGS. 8A and 8C). […] In separate experiments, human PBMCs were thawed, rested overnight and then treated with venetoclax for 24 hours. Similar results were observed when increasing the number of tested samples (n=9 donors), and refining the markers for the different T-cell subsets: naïve T-cells (TN; CD62L+CD45RA+), central memory (TCM; CD62L+CD45RA−), effector memory cells (TEM; CD62L−CD45RA−) and terminally differentiated effector memory (TEMRA; CD62L−CD45RA+) (FIGS. 8E, 8F, 8G). Venetoclax decreases the proportion of naïve T-cells, but not memory cells, and specifically induces an increase in effector memory T-cells. It can therefore be seen that, while naïve T- and B-cells were sensitive to venetoclax, memory T-cells were less sensitive to venetoclax. While TCM cells home to lymph nodes and efficiently stimulate dendritic cells, TEM and TEMRA cells home to tissues, comprised of antigen-experienced cells and are ready to mediate rapid effector and cytotoxic functions necessary to kill the tumor.

[1] = unstimulated, increasing concentrations

SMILES: CC1(C)CCC(CN2CCN(c3ccc(C(=O)NS(=O)(=O)c4ccc(NCC5CCOCC5)c([N+](=O)[O-])c4)c(Oc4cnc5[nH]ccc5c4)c3)CC2)=C(c2ccc(Cl)cc2)C1 [Compound (I), venetoclax]
- IC50 (A549): 3.19 µM
- IC50 (COLO-205): > 10 µM
- IC50 (HT29): > 10 µM
- IC50 (MDA-MB-231): 4.83 µM
- IC50 (NCI-H146): 4.2 µM
- IC50 (NCI-H1836): > 5 µM
- IC50 (NCI-H187): 3.04 µM
- IC50 (NCI-H209): > 10 µM
- IC50 (SJSA-1): > 10 µM
- IC50 (SW948): > 10 µM
- IC50 (4T1): > 10 µM
- IC50 (B16F10): > 10 µM
- IC50 (B16F1): > 10 µM
- IC50 (CT26): > 10 µM
- IC50 (EMT6): > 10 µM
- IC50 (LL2): > 10 µM
- IC50 (MC38): ~10 µM
- IC50 (Renca): > 10 µM
- proportion of the T-cell subsets (human PBMCs; CD3/CD28 stimulated conditions): did not affect
- sensitivity of T-cells (human PBMCs; PBMCs stimulated with anti-CD3 and anti-CD28 for 72 hours before treatment): not sensitive
- number of B-cells and T-cells (CD4+ and CD8+) (human PBMCs; unstimulated PBMCs cultured 72 hours, then 24 hours treatment): dose-dependent decrease
- proportion of CD4+ TCM, CD8+ TEMRA and CD8+ TEM cells relative to surviving T-cells (human PBMCs; [1]): increased
- proportion of naïve T-cells (human PBMCs; [1]): decreased
